Here are results for 8 compounds from patent US20170007727A1, “METHODS OF IMAGING WITH Ga-68 LABELED MOLECULES” (Immunomedics, Inc., priority 2015, published 2017).

By IC50 is commonly meant the concentration at which inhibition is half-maximal.

A short description of data set [1]: Stability of ^18F-labeled IMP 466 in human serum (RP-HPLC). The class given is in vitro ADME. Conditions: 37° C., 4 h. The protocol:
Ten μL of the ^18F-labeled IMP 466 was incubated in 500 μL of freshly collected human serum and incubated for 4 h at 37° C. Acetonitrile was added and the mixture was vortexed followed by centrifugation at 1000×g for 5 min to precipitate serum proteins. The supernatant was analyzed on RP-HPLC as described above.

The target of data set [2] is somatostatin receptors on AR42J cells (rat). In words: apparent IC50, competitive binding on AR42J cells against 111In(DTPA-octreotide), RT 3 h.
Sequence of somatostatin receptors on AR42J cells (rat) (P30680 whole entry): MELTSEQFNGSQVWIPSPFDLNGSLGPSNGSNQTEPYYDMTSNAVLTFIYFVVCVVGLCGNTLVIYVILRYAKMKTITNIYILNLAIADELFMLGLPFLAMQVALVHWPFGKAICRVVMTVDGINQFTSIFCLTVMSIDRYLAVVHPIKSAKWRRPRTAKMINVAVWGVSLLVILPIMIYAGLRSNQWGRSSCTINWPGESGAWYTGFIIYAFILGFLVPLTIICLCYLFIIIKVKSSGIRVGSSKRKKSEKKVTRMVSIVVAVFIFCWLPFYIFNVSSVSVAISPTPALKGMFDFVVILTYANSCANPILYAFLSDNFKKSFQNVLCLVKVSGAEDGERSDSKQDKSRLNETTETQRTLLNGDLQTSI
Data set [3] relates to CEA-expressing LS174T tumors. As to conditions: mouse, in vivo.
Experimental: One or two hours after the injection of the radiolabeled peptide, PET/CT images were acquired and the biodistribution of the radiolabeled peptide was determined. Uptake in the LS174T tumor was compared with that in an s.c. CEA-negative SK-RC 52 tumor.
Experiments were performed in male nude BALB/c mice (6-8 weeks old), weighing 20-25 grams. Mice received a subcutaneous injection with 0.2 mL of a suspension of 1×10^6 LS174T-cells, a CEA-expressing human colon carcinoma cell line (American Type Culture Collection, Rockville, Md., USA).
The percentage-injected dose per gram tissue (% ID/g) was calculated.
LS174T tumors were pretargeted by injecting 1.0, 2.5, 5.0 or 10.0 nmol TF2 (160, 400, 800 or 1600 μg).
In the right flank an s.c. LS174T tumor was induced, while at the same time in the same mice 1×10^6 SK-RC 52 cells were inoculated in the left flank to induce a CEA-negative tumor.
Mice were fasted during 10 hours prior to the injection and anaesthetized and kept warm at 37° C. until euthanasia, 1 h postinjection.
In another data set the test system is AR42J tumors. In words: Biodistribution in mice with s.c. AR42J tumors. Format: in vivo, nude BALB/c mice. Conditions: 2 h p.i. The procedure:
Male nude BALB/c mice (6-8 weeks) were injected subcutaneously in the right flank with 0.2 mL AR42J cell suspension of 10^7 cells/mL. Approximately two weeks after tumor cell inoculation when tumors were 5-8 mm in diameter, 370 kBq ^18F- or ^68Ga-labeled IMP 466 was administered intravenously (n=5). Separate groups (n=5) were injected with a 1,000-fold molar excess of unlabeled IMP 466. One group of three mice was injected with unchelated [Al^18F]. All mice were killed by CO2/O2 asphyxiation 2 h post-injection (p.i.). Organs of interest were collected, weighed and counted in a gamma counter. The percentage of the injected dose per gram tissue (% ID/g) was calculated for each tissue. The animal experiments were approved by the local animal welfare committee and performed according to national regulations.

For a further data set, the target named is RIIα dimers (Homo sapiens, UniProt P13861). As to conditions: read-out: affinity for RIIα dimers; cited from earlier work.
Sequence of RIIα dimers (P13861 whole entry): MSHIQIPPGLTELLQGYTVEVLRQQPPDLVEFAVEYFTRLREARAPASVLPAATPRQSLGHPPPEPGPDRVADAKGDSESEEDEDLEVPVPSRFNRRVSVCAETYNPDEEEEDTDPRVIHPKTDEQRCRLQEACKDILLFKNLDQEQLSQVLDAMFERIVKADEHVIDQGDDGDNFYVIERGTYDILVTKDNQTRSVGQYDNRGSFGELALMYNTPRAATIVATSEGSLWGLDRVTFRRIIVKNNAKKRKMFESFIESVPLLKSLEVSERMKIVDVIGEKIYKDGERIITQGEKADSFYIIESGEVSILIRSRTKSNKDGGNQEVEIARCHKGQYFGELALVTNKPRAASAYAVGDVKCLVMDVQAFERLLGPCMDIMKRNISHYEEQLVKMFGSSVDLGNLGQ
The conditions of data set [4]: complexed with ^177Lu or ^205/206Bi; cited from earlier work.

Numbered stars: 1 amine (or outer) side, 2 acyl side, 3 side chain; on linkers, the order of the positions; unused ones are H or OH. Square brackets hold non-standard residues; d marks the D form. Side chains are listed from the residue outwards. Peptide text beside a SMILES is read from it. * marks the point of attachment. DOTA = O=C(O)CN1CCN(CC(=O)O)CCN(CC(=O)*)CCN(CC(=O)O)CC1; NH(2-(imidazol-4-yl)ethyl) = c1ncc(CCN*)[nH]1; Suc = O=C(CCC(=O)[*:2])[*:1]

`C[C@@H](O)[C@@H]1NC(=O)[C@H](CCCCN)NC(=O)[C@@H](Cc2c[nH]c3ccccc23)NC(=O)[C@H](Cc2ccccc2)NC(=O)[C@@H](NC(=O)[C@@H](Cc2ccccc2)NC(=O)CN2CCN(CC(=O)O)CCN(CC(=O)O)CC2)CSSC[C@@H](C(=O)N[C@H](CO)[C@@H](C)O)NC1=O` [Al^18F(IMP 466)]: the “release of ^18F after incubation in human serum” value in data set [1] was “did not show release of ^18F”.
For “Al19F(IMP 466): NOTA-D-Phe-Cys-Phe-D-Trp-Lys-Thr-Cys-Throl complexed with aluminium fluoride (19F) (peptide)”, the IC50 in data set [2] is 3.6 nM.
As to `NC(=O)[C@@H](CCCCNC(=O)CNC(=O)CCC(=O)NCCc1c[nH]cn1)NC(=O)[C@@H](CCC(=O)O)NC(=O)[C@@H](CCCCNC(=O)CNC(=O)CCC(=O)NCCc1c[nH]cn1)NC(=O)[C@@H](Cc1ccc(O)cc1)NC(=O)CN1CCN(CC(=O)O)CCN(CC(=O)O)CCN(CC(=O)O)CC1` [IMP 288, DOTA-D-Tyr-D-Lys(HSG)-D-Glu-D-Lys(HSG)-NH2] ({DOTA}-[dY][dK]([Gly-Suc-NH(2-(imidazol-4-yl)ethyl)])[dE][dK]([Gly-Suc-NH(2-(imidazol-4-yl)ethyl)])-NH2), the “time to maximum accretion in the tumor” value in data set [3] is at most 1 h.
As for “69Ga(IMP 466): NOTA-D-Phe-Cys-Phe-D-Trp-Lys-Thr-Cys-Throl complexed with 69Ga (peptide)”, the IC50 in data set [2] worked out at 13 nM.
As to `[18F][Al+2]` [[Al^18F]], the bone uptake with AR42J tumors is reported as 36.9±5.0 % ID/g. Besides, the “uptake in the bone” value in data set [3] came to 50.9±11.4 % ID/g.
For the compound “17 residue synthetic AD, SEQ ID NO: 8 QIEYLAKQIVDNAIQQA [AKAP-IS]”, the Kd with RIIα dimers is 0.4 nM.
As to 115In(DTPA-octreotide) (peptide), the IC50 in data set [2] was 6.3 nM.
As for `O=C(O)CN1CCN(CC(=O)O)CCN(CC(Cc2ccc([N+](=O)[O-])cc2)N(CC(=O)O)CC(=O)O)CC1` (stereo not drawn) [C-NETA], the stability in serum entry in data set [4] is given as “up to 14 days”.
